Assay results taken from US6884798B2, “Fungicidal agent combinations” (Bayer CropScience AG, priority 2000, dated 2005).

Tested on: Sphaerotheca pannosa
Assay: Sphaerotheca test roses/curative
Assay type: in vivo, Sphaerotheca pannosa on roses
Conditions: infected roses sprayed three times at 7-day intervals; application rate 100 g/ha
Procedure: To produce a suitable preparation of active compound, a commercial formulation of active compound or active compound combination is mixed with water until the desired concentration is reached.
To test for curative activity, roses infected with Sphaerotheca pannosa are sprayed three times, at intervals of in each case 7 days, with the preparation of active compound at the stated application rate. The plants are placed in a greenhouse at temperatures between 15° C. and 23° C. and a relative atmospheric humidity of about 70%.
Evaluation is carried out 10 or 20 days after the third treatment. 0% means an efficacy which corresponds to that of the control, whereas an efficacy of 100% means that no infection is observed.

CC(C)(C)C(O)(CCc1ccc(Cl)cc1)Cn1cncn1 (centres unmarked) [tebuconazoles, tebuconazole]
Efficacy in % 10 days after the third treatment: 28.6%
Efficacy in % 20 days after the third treatment: 26.6%
